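In this assay, cells in 96-well plates receive the compound at five concentrations for 48 hours. Endpoints are linearly interpolated between the surrounding concentrations. Here, GI50 denotes the concentration required for 50% inhibition of growth. Definition used: TGI = concentration required for complete inhibition of growth.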
Key:
Assay in all cases: NCI anticancer screen, dose series, 48 h
BT-549 breast = tested on: BT-549 breast
T-47D breast = tested on: T-47D breast
NCI/ADR-RES ovarian = tested on: NCI/ADR-RES ovarian
HS 578T breast = tested on: HS 578T breast
PC-3 prostate = tested on: PC-3 prostate
MDA-MB-231 breast = tested on: MDA-MB-231 breast

C=C1C(=O)O[C@H]2[C@H]1CC/C(Cn1cc(CNCCc3c[nH]c4ccc(Cl)cc34)nn1)=C\CC[C@@]1(C)O[C@@H]21
GI50 (BT-549 breast): 3.88 µM
TGI (BT-549 breast): 17 µM
GI50 (T-47D breast): 3.24 µM
TGI (T-47D breast): 13.8 µM
GI50 (NCI/ADR-RES ovarian): > 100 µM
TGI (NCI/ADR-RES ovarian): > 100 µM
GI50 (HS 578T breast): 11.1 µM
TGI (HS 578T breast): 53.1 µM
GI50 (PC-3 prostate): 8.96 µM
TGI (PC-3 prostate): 27 µM
GI50 (MDA-MB-231 breast): 4.04 µM
TGI (MDA-MB-231 breast): 16.2 µM

COc1ccc(-c2nn(-c3ccc(NC(=O)c4ccc(Cl)c(C(F)(F)F)c4)cc3)cc2-c2ccncc2)cc1Cl
GI50 (BT-549 breast): 1.16 µM
TGI (BT-549 breast): 96.9 µM
GI50 (T-47D breast): 3.78 µM
TGI (T-47D breast): > 100 µM
GI50 (NCI/ADR-RES ovarian): 2.07 µM
TGI (NCI/ADR-RES ovarian): > 100 µM
GI50 (HS 578T breast): 0.201 µM
TGI (HS 578T breast): 0.696 µM
GI50 (PC-3 prostate): 0.669 µM
TGI (PC-3 prostate): > 100 µM
GI50 (MDA-MB-231 breast): 0.317 µM
TGI (MDA-MB-231 breast): 1.35 µM

Cc1oc2nc[nH]c(=O)c2c1C(=O)/C=C/c1ccc(Cl)cc1
GI50 (BT-549 breast): 2.24 µM
TGI (BT-549 breast): 6.55 µM
GI50 (T-47D breast): 1.72 µM
TGI (T-47D breast): 7.82 µM
GI50 (NCI/ADR-RES ovarian): 2.44 µM
TGI (NCI/ADR-RES ovarian): 21 µM
GI50 (HS 578T breast): 3.66 µM
TGI (HS 578T breast): > 100 µM
GI50 (PC-3 prostate): 2.49 µM
TGI (PC-3 prostate): 8.76 µM
GI50 (MDA-MB-231 breast): 2.64 µM
TGI (MDA-MB-231 breast): 14.6 µM

O=C(/C=C/C12c3ccccc3C(c3ccccc31)C1C(=O)N(c3ccccc3)C(=O)C12)c1ccc(Cl)cc1 (stereo not given)
GI50 (BT-549 breast): 1.37 µM
TGI (BT-549 breast): 2.88 µM
GI50 (NCI/ADR-RES ovarian): 2.16 µM
TGI (NCI/ADR-RES ovarian): 8.47 µM
GI50 (HS 578T breast): 1.82 µM
TGI (HS 578T breast): 5.92 µM
GI50 (PC-3 prostate): 1.42 µM
TGI (PC-3 prostate): 8.27 µM
GI50 (MDA-MB-231 breast): 1.64 µM
TGI (MDA-MB-231 breast): 3.9 µM

COc1ccc(C[n+]2c3ccccc3n3c4ccc(N)cc4ccc32)c(OC)c1OC
GI50 (BT-549 breast): 2.42 µM
TGI (BT-549 breast): 16.5 µM
GI50 (T-47D breast): 1.42 µM
TGI (T-47D breast): 7.03 µM
GI50 (NCI/ADR-RES ovarian): > 100 µM
TGI (NCI/ADR-RES ovarian): > 100 µM
GI50 (HS 578T breast): 5.81 µM
TGI (HS 578T breast): 35.2 µM
GI50 (PC-3 prostate): 1.82 µM
TGI (PC-3 prostate): 13.7 µM
GI50 (MDA-MB-231 breast): 9.25 µM
TGI (MDA-MB-231 breast): 31.7 µM

CCOC(=O)C1=C(C)NC2SC(=O)/C(=C\c3ccccc3Cl)N2C1c1ccccc1 (stereo not given)
GI50 (BT-549 breast): > 100 µM
TGI (BT-549 breast): > 100 µM
GI50 (T-47D breast): 33.8 µM
TGI (T-47D breast): > 100 µM
GI50 (NCI/ADR-RES ovarian): > 100 µM
TGI (NCI/ADR-RES ovarian): > 100 µM
GI50 (HS 578T breast): > 100 µM
TGI (HS 578T breast): > 100 µM
GI50 (PC-3 prostate): 73.3 µM
TGI (PC-3 prostate): > 100 µM
GI50 (MDA-MB-231 breast): > 100 µM
TGI (MDA-MB-231 breast): > 100 µM

CC(N=C(N)N)C(=O)O (stereo not given)
TGI (BT-549 breast): > 100 µM
TGI (T-47D breast): > 100 µM
TGI (NCI/ADR-RES ovarian): > 100 µM
TGI (HS 578T breast): > 100 µM
TGI (PC-3 prostate): > 100 µM
TGI (MDA-MB-231 breast): > 100 µM

CC(=O)Nc1ccc(-c2c3nc(c(-c4cc5ccccc5[n+](C)c4)c4ccc([nH]4)c(-c4ccc(NC(C)=O)cc4)c4nc(c(-c5cc6ccccc6[n+](C)c5)c5ccc2[nH]5)C=C4)C=C3)cc1
GI50 (BT-549 breast): 17 µM
TGI (BT-549 breast): > 50 µM
GI50 (T-47D breast): 8.6 µM
TGI (T-47D breast): 29.6 µM
GI50 (NCI/ADR-RES ovarian): 13.3 µM
TGI (NCI/ADR-RES ovarian): 45.7 µM
GI50 (HS 578T breast): 22.9 µM
TGI (HS 578T breast): > 50 µM
GI50 (PC-3 prostate): 15.1 µM
TGI (PC-3 prostate): > 50 µM
GI50 (MDA-MB-231 breast): 8.1 µM
TGI (MDA-MB-231 breast): 29.7 µM

COc1cccc(C(=O)Nc2ccc(CN3CCc4nc5cc(OC)c(OC)cc5cc43)cc2)c1
GI50 (BT-549 breast): 5.32 µM
TGI (BT-549 breast): 22.8 µM
GI50 (T-47D breast): 4.49 µM
TGI (T-47D breast): 53.7 µM
GI50 (NCI/ADR-RES ovarian): 4.48 µM
TGI (NCI/ADR-RES ovarian): > 100 µM
GI50 (HS 578T breast): 3.87 µM
TGI (HS 578T breast): 34 µM
GI50 (PC-3 prostate): 3.14 µM
TGI (PC-3 prostate): > 100 µM
GI50 (MDA-MB-231 breast): 2.59 µM
TGI (MDA-MB-231 breast): 11 µM

Source: PubChem BioAssay (NCI)
